The values that follow come from patent US20160222014A1, “COMPOUNDS FOR REGULATING FAK AND/OR SRC PATHWAYS” (ASANA BIOSCIENCES, LLC, priority 2013, published 2016).

One assay deals with T1, AURKB (Aurora B) enzyme (Homo sapiens, UniProt Q96GD4).
T1 construct: purchased Invitrogen PVR 130
Kind of assay: Aurora B HTRF assay. Type of assay: biochemical. As to conditions: read-out: AuroraB IC50. A digest of the protocol:
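Enzyme (5 nM final) and ULight-labelled PLK Ser137 peptide (50 nM) reacted 1 h at room temperature; a 30 μM final component was also present. Detection used EDTA-containing buffer with europium anti-phospho-PLK(Ser137) antibody at 2 nM, 1 h, then time-resolved FRET readout.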
(Time-resolved FRET reads energy transfer from a long-lived donor to a nearby acceptor.)

The target in another assay is T2, Phospho Src(Y416) (Homo sapiens, UniProt P12931).
T2 construct: endogenous in cells; host or cells: Panc1
Kind of assay: Phospho Src(Y416) Sandwich ELISA. Type of assay: cell-based. As to conditions: Panc1; read-out: pSrc EC50 (μM) Panc1. On the technique in general: An ELISA detects its analyte on a solid surface through an enzyme-linked reagent.

A further assay has as its target T3, Recombinant Src enzyme (Homo sapiens, UniProt P12931).
T3 construct: purchased Millipore 14-326; host or cells: Sf21 insect cells
Kind of assay: Src HTRF assay. The format is biochemical. A digest of the protocol: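 Run as for the FAK HTRF assay (same buffer, supplements, compound preparation and procedure), with dasatinib included. Reaction contained 0.5 μM biotin-tagged Tyk2 synthetic peptide, 5 nM Src made in Sf21 cells, and a pH7.4-buffer-prepared component at 10 μM final.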

A further assay deals with JAK2 (Homo sapiens, UniProt O60674). Kind of assay: JAK2 biochemical potency. As to conditions: read-out: JAK2 HTRF IC50.
JAK2, sequence (O60674 whole entry, species assumed): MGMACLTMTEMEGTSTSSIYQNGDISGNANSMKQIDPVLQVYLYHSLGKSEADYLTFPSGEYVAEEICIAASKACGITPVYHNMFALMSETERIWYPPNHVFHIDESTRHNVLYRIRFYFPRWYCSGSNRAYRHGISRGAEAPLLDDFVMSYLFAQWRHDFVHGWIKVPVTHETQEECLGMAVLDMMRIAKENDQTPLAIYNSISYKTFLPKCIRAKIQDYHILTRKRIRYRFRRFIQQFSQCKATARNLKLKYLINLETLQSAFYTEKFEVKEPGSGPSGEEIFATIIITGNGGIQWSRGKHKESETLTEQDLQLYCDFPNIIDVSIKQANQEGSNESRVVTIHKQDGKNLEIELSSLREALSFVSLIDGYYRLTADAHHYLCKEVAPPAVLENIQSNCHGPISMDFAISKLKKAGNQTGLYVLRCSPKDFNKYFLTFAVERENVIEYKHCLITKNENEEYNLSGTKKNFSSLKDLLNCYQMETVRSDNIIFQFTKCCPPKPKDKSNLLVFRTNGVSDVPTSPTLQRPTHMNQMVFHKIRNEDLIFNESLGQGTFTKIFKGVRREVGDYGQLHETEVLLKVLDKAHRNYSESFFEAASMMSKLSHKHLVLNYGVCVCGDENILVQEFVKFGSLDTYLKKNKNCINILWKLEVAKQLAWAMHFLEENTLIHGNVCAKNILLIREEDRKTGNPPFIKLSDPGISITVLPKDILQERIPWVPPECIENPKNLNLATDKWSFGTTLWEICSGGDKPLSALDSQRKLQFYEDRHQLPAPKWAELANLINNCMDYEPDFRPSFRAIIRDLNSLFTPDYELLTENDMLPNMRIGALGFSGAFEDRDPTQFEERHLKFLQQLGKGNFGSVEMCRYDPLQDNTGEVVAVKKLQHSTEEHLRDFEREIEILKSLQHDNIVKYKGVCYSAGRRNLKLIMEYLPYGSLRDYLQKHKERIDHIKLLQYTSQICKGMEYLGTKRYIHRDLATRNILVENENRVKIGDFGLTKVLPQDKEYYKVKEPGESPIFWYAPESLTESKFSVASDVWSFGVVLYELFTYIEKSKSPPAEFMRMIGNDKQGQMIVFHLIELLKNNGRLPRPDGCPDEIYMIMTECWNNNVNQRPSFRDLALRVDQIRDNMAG

T2 sequence (P12931 whole entry): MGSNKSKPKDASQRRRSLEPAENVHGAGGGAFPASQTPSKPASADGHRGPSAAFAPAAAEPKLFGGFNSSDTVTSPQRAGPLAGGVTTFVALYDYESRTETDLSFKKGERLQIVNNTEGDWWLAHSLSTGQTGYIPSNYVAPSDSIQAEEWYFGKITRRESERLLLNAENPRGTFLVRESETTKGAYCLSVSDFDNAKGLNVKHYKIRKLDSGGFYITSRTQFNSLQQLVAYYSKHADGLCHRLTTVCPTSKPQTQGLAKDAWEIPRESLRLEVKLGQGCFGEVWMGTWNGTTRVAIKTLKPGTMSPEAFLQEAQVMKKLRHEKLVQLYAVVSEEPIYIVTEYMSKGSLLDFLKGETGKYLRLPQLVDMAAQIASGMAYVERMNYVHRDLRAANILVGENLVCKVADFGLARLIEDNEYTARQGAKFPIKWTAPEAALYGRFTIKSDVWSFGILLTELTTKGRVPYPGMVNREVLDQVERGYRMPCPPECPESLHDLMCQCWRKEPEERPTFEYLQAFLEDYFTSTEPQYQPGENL
T3 sequence (P12931 whole entry): as above
T1 sequence (Q96GD4 whole entry): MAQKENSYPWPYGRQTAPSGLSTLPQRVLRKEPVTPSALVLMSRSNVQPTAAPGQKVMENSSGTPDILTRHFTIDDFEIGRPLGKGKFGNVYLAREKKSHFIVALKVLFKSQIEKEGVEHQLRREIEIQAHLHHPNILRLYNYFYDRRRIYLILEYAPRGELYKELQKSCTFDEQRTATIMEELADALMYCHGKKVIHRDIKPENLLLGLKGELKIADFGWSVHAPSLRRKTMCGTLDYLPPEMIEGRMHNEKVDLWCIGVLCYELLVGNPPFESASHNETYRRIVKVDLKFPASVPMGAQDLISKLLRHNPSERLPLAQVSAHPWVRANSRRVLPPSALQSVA

What is called IC50 is the concentration needed to halve the response being measured. Usually EC50 stands for the concentration giving half of the maximal effect. For the molecule `Cn1cc(Nc2ncc3ccn(S(=O)(=O)c4cccc5cccnc45)c3n2)cn1` [Example 318], the IC50 at AURKB (Aurora B) enzyme is less than 20 nM. Moreover, the EC50 at Phospho Src(Y416) is more than 1 µM.

With `Cc1cc(Nc2ncc3cnn(S(=O)(=O)c4cccc5cccnc45)c3n2)ccc1N1CCNCC1` [Example 332], the half-maximal inhibitory concentration (IC50) at AURKB (Aurora B) enzyme and on Recombinant Src enzyme was less than 20 nM in each case.

As to `CC(=O)Nc1cccc(Nc2cc3c(cn2)cnn3Cc2ccccc2OC(F)F)c1` [Example 64], the IC50 at AURKB (Aurora B) enzyme was more than 1000 nM. In addition, the EC50 on Phospho Src(Y416) is more than 1 µM.

On to `FC(F)Oc1ccccc1Cn1ncc2cnc(Nc3ccc4ncsc4c3)cc21` [Example 82], for which the concentration for half-maximal inhibition (IC50) on AURKB (Aurora B) enzyme is more than 1000 nM. At Phospho Src(Y416), the EC50 is more than 1 µM.

As for `CN(c1ncccc1Cn1ccc2cnc(Nc3ccc(NCCO)cc3)nc21)S(C)(=O)=O` [Example 201], the IC50 at AURKB (Aurora B) enzyme and on JAK2 was less than 20 nM in each case. Besides, the EC50 at Phospho Src(Y416) is more than 1 µM.

`CN(c1ncccc1Cn1ncc2cnc(Nc3ccc4[nH]c(=O)[nH]c4c3)cc21)S(C)(=O)=O` [Example 142]: the IC50 on Recombinant Src enzyme was more than 1000 nM. For the same molecule, on Phospho Src(Y416), the EC50 is more than 1 µM.

`O=S(=O)(c1cccc2nsnc12)n1ccc2cnc(Nc3ccc(N4CCNCC4)cc3)nc21` [Example 253]: the IC50 at AURKB (Aurora B) enzyme and on JAK2 was less than 20 nM each time. Further, the EC50 on Phospho Src(Y416) is more than 1 µM.

For the molecule `O=C1CCc2cc(Nc3ncc4ccn(S(=O)(=O)c5cccc6cccnc56)c4n3)ccc2N1` [Example 169], the IC50 at AURKB (Aurora B) enzyme and on Recombinant Src enzyme was less than 20 nM in each case. In addition, at Phospho Src(Y416), the EC50 was more than 1 µM.

Consider `FC(F)Oc1ccccc1Cn1ccc2cnc(Nc3ccc4ncsc4c3)nc21` [Example 36], for which the IC50 was more than 1000 nM on AURKB (Aurora B) enzyme and less than 20 nM at JAK2. For the same molecule, the EC50 at Phospho Src(Y416) was more than 1 µM.

With `CN(c1ncccc1Cn1ccc2cnc(Nc3ccc(N4CCCC4CO)cc3)nc21)S(C)(=O)=O` (stereo not drawn) [Example 536], the EC50 at Phospho Src(Y416) is more than 1 µM.

Consider `CN(c1ncccc1Cn1ncc2cnc(Nc3ccc4c(c3)CCC(=O)N4)nc21)S(C)(=O)=O` [Example 202], for which the half-inhibitory concentration (IC50) at JAK2 and at Recombinant Src enzyme was less than 20 nM throughout. Besides, the EC50 at Phospho Src(Y416) is more than 1 µM.

In the case of `O=C1CCc2cc(Nc3ncc4cnn(Cc5ccccc5OC(F)F)c4n3)ccc2N1` [Example 21], the IC50 on JAK2 and at Recombinant Src enzyme was less than 20 nM each time. Moreover, the EC50 at Phospho Src(Y416) was more than 1 µM.

For the molecule `O=C1CCc2cc(Nc3ncc4ccn(Cc5cccnc5N5CCCS5(=O)=O)c4n3)ccc2N1` [Example 216], the IC50 at AURKB (Aurora B) enzyme and on Recombinant Src enzyme was less than 20 nM in each case.

As to `COc1cc(N2CCNCC2)ccc1Nc1cc2c(ccn2S(=O)(=O)c2cccc3cccnc23)cn1` [Example 330, N-(2-Methoxy-4-(piperazin-1-yl)phenyl)-1-(quinolin-8-ylsulfonyl)-1H-pyrrolo[3,2-c]pyridin-6-amine], the IC50 is less than 20 nM at AURKB (Aurora B) enzyme, more than 1000 nM on JAK2 and more than 1000 nM at Recombinant Src enzyme.

With `COc1ccccc1S(=O)(=O)n1ncc2cnc(Nc3ccc(N4CCNCC4)cc3)nc21` [Example 335], at AURKB (Aurora B) enzyme, the IC50 was less than 20 nM. For the same molecule, the EC50 at Phospho Src(Y416) is more than 1 µM.
